Values quoted from earlier work in patent US20110200632A1, “ADJUVANTING MATERIAL” (Lipotek Pty Ltd., priority 2005, published 2011).

System: splenocytes and macrophages
Conditions: versus Pam3Cys

Structure (SMILES): CCCCCCCCCCCCCCCC(=O)OCC(CSC[C@H](N)C(=O)O)OC(=O)CCCCCCCCCCCCCCC (stereo partly drawn) [Pam2Cys, S-[2,3-bis(palmitoyloxy)propyl]cysteine]
- stimulator of splenocytes and macrophages, compared with Pam3Cys: more potent
